Assay results published in US11197862B2, “Methods of preventing toxicity of platinum drugs” (XOMICS BIOPHARMA, INC., priority 2015, dated 2021).
Several values for one entry are separate records, joined by “and”; a condition that tells them apart may be missing. Equal entries are not always repeated. Entries after “also recorded” stand apart in the source; their conditions may differ.

Tests used:
[1] = cited from earlier work
[2] = Tissue platinum accumulation by atomic absorption after 8 cycles of oxaliplatin; format: in vivo, mouse; settings: buflomedil 80 mg/kg po; 8 cycles OXA; 24 h after last administration
Method: At the end of 8 cycles of treatment, cold plate test, dynamic test and NCS test were conducted in all mice. Platinum content in DRG, Sciatic nerves and kidney of 3 mice each in the OXA and OXA+BFMD groups, was measured using the method below. The tissue total platinum concentration was determined on frozen sciatic nerve. […] For each tissue, a calibration with control standard tissue was generated. All frozen test samples and standards were treated for a digestion process with a specific HNO3: HCl solution (1:3). The samples obtained after digestion were analyzed by “Atomic Absorption” (Analyst 600 Perkin Elmer, Monza, Italy), and platinum tissue concentration was calculated accordingly.

OCT2 and MATE1 = test: Buflomedil inhibition of OCT2 and MATE1 with metformin as substrate (FIG. 15A); format: cell-based, human
[3] = system: Balb/c mice exposed to chronic treatment with Oxaliplatin; test: Caudal nerve conduction study in chronic oxaliplatin neuropathy model; format: in vivo, mouse; settings: for caudal nerve action potential amplitude / caudal nerve conduction velocity: OXA 3.5 mg/kg iv, 8 cycles ± BFMD 30 mg/kg ip + 15 mg/kg iv
Method: The development of peripheral neuropathy after chronic administration of drugs was assessed by evaluating the nerve conduction velocity (NCV) along caudal and digital nerve using an electromyography apparatus (Myto2 ABN Neuro, Firenze, Italy). Caudal NCV was determined by placing a couple of recording needle electrodes at the base of the tail and a couple of stimulating needle electrodes 3.5 cm distally to the recording points. Similarly, the digital NCV was determined by placing the recording electrodes close to the ankle bone and the stimulating electrodes close to the fourth toe near the digital nerve. The intensity, duration and frequency of stimulation were set up in order to obtain optimal results. All the neurophysiological determinations were performed under standard conditions in a temperature-controlled room (22+/−2° C.) and the animal under isoflurane anesthesia along the whole procedure with continuous monitoring of vital signs.

[4] = system: Balb/c mice exposed to chronic treatment with Oxaliplatin; test: Cold Plate Test in chronic oxaliplatin neuropathy model; format: in vivo, mouse; settings: for Cold Plate Test pain signs after third injection / Cold Plate Test pain signs at the end of treatment (eight injections): OXA 3.5 mg/kg iv ± BFMD 30 mg/kg ip + 15 mg/kg iv; for Cold Plate Test pain signs after third injection: 3 cycles
Method: Cold Plate Test was used to determine the alterations in cold temperature related pain perception and their changes due to pharmacological treatment. Cold Plate Test was performed by using an apparatus (35100—Hot/Cold Plate. Ugo Basile instruments) composed by a Plexiglas cylinder and a thermostatic plate, able to reach variable temperatures. The mice were placed on the plate set at +4° C., free to move and walk. Two blinded experimenters simultaneously determine the number of pain signs (e.g. jumping, licking, etc.) in a trial of 5 minutes.

HepG2 cells = test: Anti-proliferation study (SRB assay) in HepG2 cells; settings: FIG. 10
Method: The potency was determined by the sulforhodamine B (SRB) assay in 96-well plates. […] Seeding density was 3000 cells/well for both cell lines.

[5] = system: MDCK cells expressing OCT2, MATE1 and MATE2K; test: LDH cytotoxicity of cisplatin in MDCK-II triple-transporter model; format: cell-based, canine; settings: 6 μM buflomedil; 1 mM cisplatin; FIG. 7
Method: A triple-transporter model for OCT2(SLC22A2), MATE1(SLC47A1), and MATE2-K(SLC47A2) was created by transfecting fully confluent MDCK-II cell monolayers with DNA mixture containing the plasmids encoding OCT2, MATE1, and MATE-2K at concentrations of 40, 15, and 5 ng/μl, respectively. […] This systems were cultured in complete medium consisting of Dulbecco's modified Eagle's medium without phenyl-red with 10% fetal bovine serum in an atmosphere of 5% CO2-95% air at 37° C. The apical medium was adjusted to pH 6.7 with 25 mM of 2-(N-morpholino) ethanesulfonic acid (MES).
Dolutegravir was tested at 10 μM. […] Cytotoxicity was tested using the same procedure described above.

[6] = system: Balb/c mice exposed to acute treatment with Oxaliplatin; test: Dynamic test (mechanical pain threshold) after a single oxaliplatin administration; format: in vivo, mouse; settings: 24 hours after single OXA 3.5 mg/kg iv, DTG 4 mg/kg ip 1 hour before, CPC 4 mg/kg iv co-administered
Method: OXA vehicle, OXA, CPC, DTG, DTG+OXA and CPC+OXA were administered once time. In the group co-administered with OXA and DTG. DTG was injected intraperitoneally 1 hour before the administration of OXA. In the group co-administered with OXA and CPC, CPC was co-administered with OXA intravenously. Mechanical allodynia and cold sensory threshold (dynamic test and cold plate test) were performed 24 and 48 hours after the treatment, respectively, using the methods described in EXAMPLE 15 Plasma Sample Collection

[7] = Dolutegravir plasma concentration in Balb/C mice after PO, IV and IP administration; format: in vivo, mouse; settings: 10 mg/kg PO, 4 mg/kg IV, 4 mg/kg IP
Method: Male mice of 6-7 weeks of age were obtained from Charles River and allowed to acclimate for 3-5 days. The mice were weighed and individually identified (tail marked). The mice (n=3) in the oral (PO) group were fasted overnight and orally gavaged with 10 mg/kg of Dolutegravir. The second group of mice (n=3) were intravenously (IV) injected with 4 mg/kg of Dolutegravir. The third group of mice (n=3) were intraperitoneally (IP) injected with 4 mg/kg of Dolutegravir. At 10 min, 0.5 h, 1 h post dosing. ˜120 μl of blood sample was collected from the IV and IP mice by orbital venous sinus bleeding. At 1 h, 2 h, 4 h post dosing, ˜120 μl of blood sample was collected from the PO mice by orbital venous sinus bleeding. […] For analysis, the plasma samples were diluted into the calibration range as needed. […] The calibration curve was extracted in the same way as the unknown samples. The final extracts were analyzed by LC-MS/MS using positive electrospray ionizations under the multiple-reaction-monitoring (MRM) mode for the detection of Dolutegravir. The standard curve fitted by linear regression was used to quantify the analyte in the matrix using Analyst 1.6.2 software (AB Sciex).

[8] = 14-week toxicity study in monkey, females, PMDA 2012, cited from earlier work
[9] = human, in vivo
[10] = buflomedil 80 mg/kg po 2 hours before OXA, 8 cycles, n=3/group

Structure (SMILES): COc1cc(OC)c(C(=O)CCCN2CCCC2)c(OC)c1 [Buflomedil, 4-pyrrolidin-1-yl-1-(2,4,6-trimethoxyphenyl)butan-1-one]
- plasma level associated with serious toxicities ([1]; European Medicines Agency 2012, Bourguignon 2012): above 10 mg/I and > 32.5 uM
- MTC (maximum tolerable concentration) ([1]; plasma): 10 mg/I
- platinum (oxaliplatin) accumulation in DRG [2]: effective on reducing platinum accumulation in DRG; also recorded: significant decrease in oxaliplatin accumulation in DRG
- platinum (oxaliplatin) accumulation in kidney [2]: effective on reducing platinum accumulation; also recorded: reduced oxaliplatin accumulation in the kidney
- platinum (oxaliplatin) accumulation in sciatic nerves [2]: such decrease was not seen in sciatic nerves
- inhibition selectivity between OCT2 and MATE1, metformin as substrate (OCT2 and MATE1): no inhibition selectivity between OCT2 and MATE1
- caudal nerve action potential amplitude ([3]; listed as BFMD): no statistically significant difference among CTRL. BFMD and OXA+BFMD groups
- caudal nerve conduction velocity ([3]; listed as BFMD): small but statistically significant increase when compared to OXA alone
- caudal nerve action potential amplitude ([3]; listed as buflomedil): effective on reducing peripheral neurotoxicity
- caudal nerve conduction velocity ([3]; listed as buflomedil): effective on reducing peripheral neuropathy
- nerve injury assessed by caudal NCV [3, 10]: effective on reducing nerve injury; also recorded: showed protective effects against OXAIPN
- Cold Plate Test pain signs after third injection ([4]; listed as BFMD): only the group treated with OXA alone showed a significant increase in pain signs
- Cold Plate Test pain signs after third injection ([4]; listed as buflomedil): effective on reducing cold allodynia
- Cold Plate Test pain signs at the end of treatment (eight injections) ([4]; 8 cycles, listed as BFMD): significant decrease in pain signs versus OXA alone
- Cold Plate Test pain signs at the end of treatment (eight injections) ([4]; 8 cycles, listed as buflomedil): effective on reducing cold allodynia
- cold allodynia (cold plate test) [4, 10]: effective on reducing mechanical (FIG. 30A) and cold (FIG. 30B) allodynia; also recorded: showed protective effects against OXAIPN
- effect on anti-tumor potency of oxaliplatin in HepG2 (HepG2 cells): not buflomedil
- effect on cisplatin cytotoxicity [5]: significantly reduced cytotoxicity from 1 mM of cisplatin

Structure (SMILES): C[C@@H]1CCO[C@H]2Cn3cc(C(=O)NCc4ccc(F)cc4F)c(=O)c(O)c3C(=O)N12 [Dolutegravir]
- Mechanical Pain Threshold (MPT), mechanical hypersensitivity [6]: effective on reducing mechanical hypersensitivity
- Mechanical Pain Threshold (MPT), mechanical hypersensitivity ([6]; listed as DTG): nearly completely alleviated mechanical hypersensitivity
- effect of route of administration on plasma exposure [7]: route of administration significantly affected dolutegravir plasma exposure
- mean plasma Cmax at the NOAEL dose [8]: 23500 ng/mL
- Cmax ([8]; read-out: mean plasma Cmax at the NOAEL dose): 54.8 µM

Structure (SMILES): Clc1ccc(COC(Cn2ccnc2)c2ccc(Cl)cc2Cl)c(Cl)c1 (stereo not drawn) [Miconazole]
- Plasma peak unbound concentration Cmax,u [9]: 1.19 µM
